Laboratory results from the kinase profiling compilation of Christmann-Franck et al. (2016).
Where “and” joins values, the source holds several entries; their conditions need not be identical. Identical values can stand only once.

How the values were obtained:
Test in all cases: radiometric filter-binding kinase assay, Kinase HotSpot
Details in all cases: compound 0.5 µM; ATP 10 µM
[1] = biological target: OXSR1 (human) (UniProt O95747)
[2] = biological target: CAMKK1 (human) (UniProt Q8N5S9)
[3] = biological target: TBK1 (human) (UniProt Q9UHD2)
[4] = biological target: NEK3 (human) (UniProt P51956)
[5] = biological target: LYN (human) (UniProt P07948)
[6] = biological target: EPHB1 (human) (UniProt P54762)
EPHB1 (human), sequence (P54762 whole entry, looked up): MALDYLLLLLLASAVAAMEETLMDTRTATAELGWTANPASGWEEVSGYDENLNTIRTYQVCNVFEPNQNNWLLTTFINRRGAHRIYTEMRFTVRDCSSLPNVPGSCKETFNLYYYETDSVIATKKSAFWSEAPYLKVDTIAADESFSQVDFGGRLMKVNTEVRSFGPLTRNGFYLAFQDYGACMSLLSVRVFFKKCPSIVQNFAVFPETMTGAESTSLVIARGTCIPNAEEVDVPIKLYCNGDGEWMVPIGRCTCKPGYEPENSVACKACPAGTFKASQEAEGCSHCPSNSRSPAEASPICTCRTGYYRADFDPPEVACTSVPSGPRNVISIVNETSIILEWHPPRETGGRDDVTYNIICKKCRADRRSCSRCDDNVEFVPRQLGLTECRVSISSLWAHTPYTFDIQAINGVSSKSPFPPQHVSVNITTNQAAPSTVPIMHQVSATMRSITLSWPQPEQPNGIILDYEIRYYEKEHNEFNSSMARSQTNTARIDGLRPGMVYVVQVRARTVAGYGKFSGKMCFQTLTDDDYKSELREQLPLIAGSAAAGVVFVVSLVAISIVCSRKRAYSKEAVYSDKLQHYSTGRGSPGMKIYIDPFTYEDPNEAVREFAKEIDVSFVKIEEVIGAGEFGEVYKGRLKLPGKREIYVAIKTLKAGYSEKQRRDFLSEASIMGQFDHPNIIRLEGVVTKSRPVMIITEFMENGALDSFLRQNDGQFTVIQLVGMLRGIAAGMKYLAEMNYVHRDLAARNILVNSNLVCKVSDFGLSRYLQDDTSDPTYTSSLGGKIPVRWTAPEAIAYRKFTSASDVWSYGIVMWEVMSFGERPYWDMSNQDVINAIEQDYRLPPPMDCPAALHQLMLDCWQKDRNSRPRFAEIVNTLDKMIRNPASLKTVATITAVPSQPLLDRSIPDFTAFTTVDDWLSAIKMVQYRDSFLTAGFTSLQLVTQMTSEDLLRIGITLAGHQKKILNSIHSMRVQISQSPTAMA

[7] = biological target: CSF1R (human) (UniProt P07333)
[8] = biological target: PRKCB1 (human) (UniProt P05771)
[9] = biological target: NUAK2 (human) (UniProt Q9H093)
[10] = biological target: RPS6KB1 (human) (UniProt P23443)
[11] = biological target: SLK (human) (UniProt Q9H2G2)
[12] = biological target: CAMK1D (human) (UniProt Q8IU85)
[13] = biological target: GRK5 (human) (UniProt P34947)
GRK5 (human), sequence (P34947 whole entry, looked up): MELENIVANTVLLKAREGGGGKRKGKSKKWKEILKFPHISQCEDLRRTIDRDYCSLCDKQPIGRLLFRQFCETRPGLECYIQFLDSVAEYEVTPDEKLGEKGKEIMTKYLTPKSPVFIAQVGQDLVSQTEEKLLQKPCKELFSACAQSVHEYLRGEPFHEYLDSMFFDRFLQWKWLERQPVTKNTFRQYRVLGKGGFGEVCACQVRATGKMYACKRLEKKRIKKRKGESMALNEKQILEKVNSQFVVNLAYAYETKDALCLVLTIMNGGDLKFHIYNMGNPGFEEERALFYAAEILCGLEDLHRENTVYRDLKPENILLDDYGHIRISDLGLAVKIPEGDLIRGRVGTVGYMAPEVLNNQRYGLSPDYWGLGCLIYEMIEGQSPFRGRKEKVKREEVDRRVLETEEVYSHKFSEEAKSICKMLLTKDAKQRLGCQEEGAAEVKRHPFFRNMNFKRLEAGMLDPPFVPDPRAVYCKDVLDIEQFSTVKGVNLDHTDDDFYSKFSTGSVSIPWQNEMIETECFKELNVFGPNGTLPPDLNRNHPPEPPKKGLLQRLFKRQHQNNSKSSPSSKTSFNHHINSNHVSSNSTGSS

[14] = biological target: AURKA (human) (UniProt O14965)
[15] = biological target: MARK4 (human) (UniProt Q96L34)
[16] = biological target: CAMK4 (human) (UniProt Q16566)
[17] = biological target: HIPK1 (human) (UniProt Q86Z02)
[18] = biological target: AKT2 (human) (UniProt P31751)
[19] = biological target: HIPK2 (human) (UniProt Q9H2X6)
[20] = biological target: FRK (human) (UniProt P42685)
[21] = biological target: ADRBK1 (human) (UniProt P25098)
[22] = biological target: PIM3 (human) (UniProt Q86V86)
[23] = biological target: DYRK4 (human) (UniProt Q9NR20)
[24] = biological target: CDK4 CCND3 (human) (UniProt P30281+P11802)
[25] = biological target: IKBKB (human) (UniProt O14920)
[26] = biological target: MATK (human) (UniProt P42679)
[27] = biological target: EPHA5 (human) (UniProt P54756)
[28] = biological target: MYLK (human) (UniProt Q15746)
[29] = biological target: PTK2 (human) (UniProt Q05397)
PTK2 (human), sequence (Q05397 whole entry, looked up): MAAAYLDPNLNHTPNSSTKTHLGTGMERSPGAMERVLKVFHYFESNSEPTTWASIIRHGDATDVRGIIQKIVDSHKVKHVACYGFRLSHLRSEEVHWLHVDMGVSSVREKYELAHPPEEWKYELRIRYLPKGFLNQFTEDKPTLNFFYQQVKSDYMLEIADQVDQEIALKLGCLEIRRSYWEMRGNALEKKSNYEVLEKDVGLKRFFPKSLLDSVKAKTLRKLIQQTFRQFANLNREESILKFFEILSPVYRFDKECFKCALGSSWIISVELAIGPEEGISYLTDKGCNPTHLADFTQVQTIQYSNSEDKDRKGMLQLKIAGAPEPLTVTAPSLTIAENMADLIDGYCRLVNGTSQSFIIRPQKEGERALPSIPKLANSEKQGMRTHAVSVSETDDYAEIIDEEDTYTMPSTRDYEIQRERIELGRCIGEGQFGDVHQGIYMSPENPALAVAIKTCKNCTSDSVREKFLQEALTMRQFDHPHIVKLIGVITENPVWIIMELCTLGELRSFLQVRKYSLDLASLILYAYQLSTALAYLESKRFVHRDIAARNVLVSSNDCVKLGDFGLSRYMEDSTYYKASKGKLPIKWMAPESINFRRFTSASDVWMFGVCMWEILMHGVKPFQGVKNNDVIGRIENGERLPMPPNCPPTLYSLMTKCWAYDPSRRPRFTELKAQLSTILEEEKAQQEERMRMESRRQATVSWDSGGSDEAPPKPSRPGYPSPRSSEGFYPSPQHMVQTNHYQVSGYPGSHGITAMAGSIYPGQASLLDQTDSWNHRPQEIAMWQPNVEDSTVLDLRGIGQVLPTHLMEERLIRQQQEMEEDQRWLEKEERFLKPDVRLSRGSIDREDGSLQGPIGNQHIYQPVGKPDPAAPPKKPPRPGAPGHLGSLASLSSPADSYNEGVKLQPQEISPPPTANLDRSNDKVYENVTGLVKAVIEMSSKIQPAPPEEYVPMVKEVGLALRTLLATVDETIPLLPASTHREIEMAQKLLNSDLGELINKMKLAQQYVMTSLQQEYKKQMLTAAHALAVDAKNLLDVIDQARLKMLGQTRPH

[30] = biological target: EPHA3 (human) (UniProt P29320)
[31] = biological target: TEC (human) (UniProt P42680)
TEC (human), sequence (P42680 whole entry, looked up): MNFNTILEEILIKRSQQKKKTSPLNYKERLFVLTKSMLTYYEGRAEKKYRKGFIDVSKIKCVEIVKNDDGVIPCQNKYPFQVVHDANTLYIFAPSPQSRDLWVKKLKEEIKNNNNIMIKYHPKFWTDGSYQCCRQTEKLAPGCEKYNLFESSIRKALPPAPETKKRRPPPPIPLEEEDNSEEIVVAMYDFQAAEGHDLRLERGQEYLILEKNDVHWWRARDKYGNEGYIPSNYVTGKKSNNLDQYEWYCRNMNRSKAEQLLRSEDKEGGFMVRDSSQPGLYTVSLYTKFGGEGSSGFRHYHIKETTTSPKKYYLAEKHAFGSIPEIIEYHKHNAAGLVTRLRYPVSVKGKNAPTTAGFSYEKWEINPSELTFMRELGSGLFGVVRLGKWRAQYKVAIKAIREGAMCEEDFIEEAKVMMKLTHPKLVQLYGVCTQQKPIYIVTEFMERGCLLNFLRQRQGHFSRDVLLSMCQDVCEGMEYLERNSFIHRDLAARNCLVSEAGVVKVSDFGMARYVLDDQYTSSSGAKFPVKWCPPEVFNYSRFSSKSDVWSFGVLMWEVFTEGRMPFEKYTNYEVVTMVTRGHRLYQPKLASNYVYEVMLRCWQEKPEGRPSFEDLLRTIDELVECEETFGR

[32] = biological target: HCK (human) (UniProt P08631)
[33] = biological target: STK16 (human) (UniProt O75716)
STK16 (human), sequence (O75716 whole entry, looked up): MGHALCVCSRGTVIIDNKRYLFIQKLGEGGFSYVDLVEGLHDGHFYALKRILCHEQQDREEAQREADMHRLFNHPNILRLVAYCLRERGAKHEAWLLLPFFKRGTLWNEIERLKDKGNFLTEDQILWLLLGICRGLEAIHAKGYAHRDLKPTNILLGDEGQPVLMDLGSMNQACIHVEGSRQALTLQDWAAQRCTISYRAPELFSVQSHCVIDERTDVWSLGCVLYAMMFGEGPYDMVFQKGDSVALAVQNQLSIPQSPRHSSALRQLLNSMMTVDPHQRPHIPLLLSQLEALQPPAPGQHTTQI

[34] = biological target: TTK (human) (UniProt P33981)
[35] = biological target: MELK (human) (UniProt Q14680)
[36] = biological target: NEK11 (human) (UniProt Q8NG66)
[37] = biological target: TGFBR2 (human) (UniProt P37173)
[38] = biological target: PKN2 (human) (UniProt Q16513)
[39] = biological target: TNK2 (human) (UniProt Q07912)
TNK2 (human), sequence (Q07912 whole entry, looked up): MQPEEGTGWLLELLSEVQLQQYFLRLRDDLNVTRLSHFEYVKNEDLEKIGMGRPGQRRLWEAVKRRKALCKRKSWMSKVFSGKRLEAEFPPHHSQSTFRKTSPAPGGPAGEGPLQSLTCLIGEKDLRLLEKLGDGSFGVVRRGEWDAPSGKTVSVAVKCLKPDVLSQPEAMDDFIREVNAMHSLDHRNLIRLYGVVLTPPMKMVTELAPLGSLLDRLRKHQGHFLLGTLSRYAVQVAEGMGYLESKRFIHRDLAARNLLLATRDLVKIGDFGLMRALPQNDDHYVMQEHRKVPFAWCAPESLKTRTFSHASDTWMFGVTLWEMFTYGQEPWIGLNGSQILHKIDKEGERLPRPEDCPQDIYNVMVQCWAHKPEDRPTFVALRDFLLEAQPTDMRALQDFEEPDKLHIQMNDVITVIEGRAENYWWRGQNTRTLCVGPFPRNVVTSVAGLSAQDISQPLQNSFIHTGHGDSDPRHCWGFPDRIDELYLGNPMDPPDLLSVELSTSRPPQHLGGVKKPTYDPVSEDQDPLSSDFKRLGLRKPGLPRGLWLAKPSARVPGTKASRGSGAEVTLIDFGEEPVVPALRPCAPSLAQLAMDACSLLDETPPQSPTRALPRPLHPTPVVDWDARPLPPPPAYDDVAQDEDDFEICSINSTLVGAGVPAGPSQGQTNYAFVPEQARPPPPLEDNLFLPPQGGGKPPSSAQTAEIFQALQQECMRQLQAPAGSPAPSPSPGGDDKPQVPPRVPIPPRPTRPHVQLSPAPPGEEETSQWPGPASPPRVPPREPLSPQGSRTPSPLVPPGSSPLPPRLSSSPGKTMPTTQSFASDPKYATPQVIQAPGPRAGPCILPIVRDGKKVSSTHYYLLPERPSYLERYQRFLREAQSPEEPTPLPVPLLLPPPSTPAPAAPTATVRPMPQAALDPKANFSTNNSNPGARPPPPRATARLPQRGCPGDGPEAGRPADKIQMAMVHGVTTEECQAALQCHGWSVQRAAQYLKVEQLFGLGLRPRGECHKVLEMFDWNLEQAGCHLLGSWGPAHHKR

[40] = biological target: MAPK13 (human) (UniProt O15264)
[41] = biological target: PDGFRB (human) (UniProt P09619)
[42] = biological target: FYN (human) (UniProt P06241)

Which residual activity [1] does the source give for `COc1cccc(-c2cc(=O)c3ccccc3o2)c1N` here?
Its residual activity is 91.2%.

What about the residual activity [2] of the same compound?
Its residual activity is 98.8%.

And the residual activity [3]?
The residual activity was 94.3%.

What about the residual activity [4] of the same compound?
Its residual activity is 102%.

What about the residual activity [5] of the same compound?
The residual activity was 94.6% and 98.7%.

What about the residual activity [6] of the same compound?
Its residual activity is 88%.

What about the residual activity [7] of the same compound?
The residual activity was 101%.

What about the residual activity [8] of the same compound?
Its residual activity is 98.5%.

And the residual activity [9]?
The residual activity was 82.9%.

And the residual activity [10]?
Its residual activity is 98%.

And the residual activity [11]?
The residual activity was 102%.

And the residual activity [12]?
The residual activity was 65.3%.

And the residual activity [13]?
The residual activity was 97.3%.

And the residual activity [14]?
The residual activity was 107%.

And the residual activity [15]?
Its residual activity is 77.8%.

What about the residual activity [16] of the same compound?
The residual activity was 104%.

What about the residual activity [17] of the same compound?
The residual activity was 104%.

What about the residual activity [18] of the same compound?
Its residual activity is 97.4%.

And the residual activity [19]?
The residual activity was 116%.

And the residual activity [20]?
The residual activity was 89.5%.

What about the residual activity [21] of the same compound?
The residual activity was 99.6%.

What about the residual activity [22] of the same compound?
The residual activity was 90.9%.

And the residual activity [23]?
Its residual activity is 108%.

What about the residual activity [24] of the same compound?
Its residual activity is 101%.

What about the residual activity [25] of the same compound?
The residual activity was 92.5%.

What about the residual activity [26] of the same compound?
Its residual activity is 88.6%.

And the residual activity [27]?
The residual activity was 97.9%.

What about the residual activity [28] of the same compound?
The residual activity was 98.9%.

And the residual activity [29]?
Its residual activity is 98.2%.

What about the residual activity [30] of the same compound?
Its residual activity is 96.3%.

And the residual activity [31]?
The residual activity was 99.2%.

What about the residual activity [32] of the same compound?
Its residual activity is 91.6%.

And the residual activity [33]?
The residual activity was 95.4%.

And the residual activity [34]?
Its residual activity is 99%.

And the residual activity [35]?
Its residual activity is 94%.

And the residual activity [36]?
Its residual activity is 92.9%.

What about the residual activity [37] of the same compound?
The residual activity was 115%.

What about the residual activity [38] of the same compound?
The residual activity was 81%.

What about the residual activity [39] of the same compound?
The residual activity was 79.9%.

What about the residual activity [40] of the same compound?
The residual activity was 99.8%.

And the residual activity [41]?
Its residual activity is 99.4%.

What about the residual activity [42] of the same compound?
Its residual activity is 97.3%.

What does the source list for `O=C(O)c1ccc2c3c1cccc3c(=O)n1c3ccccc3nc21`?
residual activity [1]: 104%; residual activity [2]: 45.8%; residual activity [3]: 20.2%; residual activity [4]: 91.8%; residual activity [5]: 101% and 99.4%; residual activity [6]: 97.5%; residual activity [7]: 104%; residual activity [8]: 89.8%; residual activity [9]: 122%; residual activity [10]: 95.9%; residual activity [11]: 94.1%; residual activity [12]: 100%; residual activity [13]: 97.1%; residual activity [14]: 78.6%; residual activity [15]: 88.4%; residual activity [16]: 101%; residual activity [17]: 104%; residual activity [18]: 101%; residual activity [19]: 101%; residual activity [20]: 97.6%; residual activity [21]: 99.3%; residual activity [22]: 4.96%; residual activity [23]: 95.9%; residual activity [24]: 102%; residual activity [25]: 109%; residual activity [26]: 94%; residual activity [27]: 94.2%; residual activity [28]: 89.8%; residual activity [29]: 97.5%; residual activity [30]: 104%; residual activity [31]: 123%; residual activity [32]: 96.7%; residual activity [33]: 106%; residual activity [34]: 81%; residual activity [35]: 97%; residual activity [36]: 83%; residual activity [37]: 133%; residual activity [38]: 97.9%; residual activity [39]: 101%; residual activity [40]: 104%; residual activity [41]: 107%; residual activity [42]: 94%

What does the source list for `O=S(=O)(NCCNC/C=C/c1ccc(Br)cc1)c1cccc2cnccc12`?
residual activity [1]: 95.9%; residual activity [2]: 99.1%; residual activity [3]: 101%; residual activity [4]: 94.4%; residual activity [5]: 101% and 126%; residual activity [6]: 106%; residual activity [7]: 97.7%; residual activity [8]: 88.3%; residual activity [9]: 78.1%; residual activity [10]: 25.6%; residual activity [11]: 93%; residual activity [12]: 85.5%; residual activity [13]: 127%; residual activity [14]: 104%; residual activity [15]: 94.3%; residual activity [16]: 95.2%; residual activity [17]: 91.4%; residual activity [18]: 75.4%; residual activity [19]: 99.2%; residual activity [21]: 91.3%; residual activity [22]: 98.3%; residual activity [23]: 96.4%; residual activity [24]: 106%; residual activity [25]: 89.5%; residual activity [26]: 96.1%; residual activity [27]: 96.9%; residual activity [28]: 90.8%; residual activity [29]: 64.1%; residual activity [30]: 109%; residual activity [31]: 102%; residual activity [32]: 99.4%; residual activity [33]: 94.4%; residual activity [34]: 99.7%; residual activity [35]: 75.1%; residual activity [36]: 92.7%; residual activity [37]: 92.1%; residual activity [38]: 78.9%; residual activity [39]: 88.3%; residual activity [40]: 101%; residual activity [41]: 112%; residual activity [42]: 107%
